According to patent US10047076B2, “Halogen-substituted compounds” (BAYER CROPSCIENCE AKTIENGESELLSCHAFT, priority 2014, dated 2018):

Assays:
[1] = tested on: Ctenocephalides felis; experiment: Ctenocephalides felis oral test; type: in vivo; settings: 100 ppm in citrated cattle blood, after 2 days
Text: (§1) Solvent: dimethyl sulphoxide
Dilution with citrated cattle blood gives the desired concentration.
About 20 unfed adult cat fleas (Ctenocephalides felis) are placed into a chamber which is closed at the top and bottom with gauze. A metal cylinder whose bottom end is closed with parafilm is placed onto the chamber. The cylinder contains the blood/active compound preparation, which can be imbibed by the fleas through the parafilm membrane.

[2] = log P determination by HPLC on reversed-phase column (C18), EEC Directive 79/831 Annex V.A8, acidic (formic acid); type: physicochemical; settings: HPLC method a), acetonitrile/water with formic acid
Description: ^1 The stated mass is the peak of the isotope pattern of the [M+H]^+ ion of the highest intensity; if the [M-H]^- ion was detected, the stated mass is identified with ^2. ^2 The stated mass is the peak of the isotope pattern of the [M-H]^- ion of the highest intensity. ^a) Note regarding the determination of the log P values and mass detection: The determination of the given log P values was carried out in accordance with EEC Directive 79/831 Annex V.A8 by HPLC (High Performance Liquid Chromatography) on a reversed-phase column (C18). […] Mass detection is effected by means of an […] system. ^b) Note regarding the determination of the retention time and mass detection: The stated retention times were determined on a reversed-phase column (C18) Shimadzu LCMS 2020; 50*3.0 Shimadzu shim-pack XR-ODS 2.2 micron; mobile phase A: water (0.05% TFA); mobile phase B: acetonitrile; linear gradient from 5% acetonitrile to 95% acetonitrile in 6.00 min, then 95% acetonitrile for a further 1.1 min; oven temperature 40° C.; flow rate: 1.0 ml/min. ^c) Note regarding the determination of the retention time and mass detection: Instrument: Waters ACQUITY SQD UPLC system; column. Waters Acquity UPLC HSS T3 1.8μ 50×1 mm; mobile phase A: 1 l of water+0.25 ml of 99% strength formic acid, mobile phase B: 1 l of acetonitrile+0.25 ml of 99% strength formic acid; gradient: 0.0 min 90% A→1.2 min 5% A→2.0 min 5% A oven: 50° C.; flow rate: 0.40 ml/min; UV detection: 208-400 nm. ^d) Note regarding the determination of the retention time and mass detection: […] The determination of the given log P values was carried out in accordance with EEC Directive 79/831 Annex V.A8 by HPLC (High Performance Liquid Chromatography) on a reversed-phase column (C18). […] Mass detection is effected by means of an […] system.

[3] = tested on: Phaedon cochleariae; experiment: Phaedon cochleariae spray test; settings: larvae on Chinese cabbage leaf discs, after 7 days
[4] = tested on: Lucilia cuprina; experiment: Lucilia cuprina test; type: in vivo; settings: 100 ppm, L1 larvae, after 2 days
Description: as §1
About 20 L1 larvae of the Australian sheep blowfly (Lucilia cuprina) are transferred into a test vessel containing minced horsemeat and the active compound preparation of the desired concentration.
After 2 days, the kill in % is determined.

[5] = tested on: Boophilus microplus; experiment: Boophilus microplus injection test; type: in vivo; settings: 20 μg/animal, engorged adult female ticks, after 7 days
Description: as §1
1 μl of the active compound solution is injected into the abdomen of 5 engorged adult female cattle ticks (Boophilus microplus). The animals are transferred into dishes and kept in a climate-controlled room.
Efficacy is assessed after 7 days by laying of fertile eggs. Eggs which are not visibly fertile are stored in a climate-controlled cabinet until the larvae hatch after about 42 days. An efficacy of 100% means that none of the ticks has laid any fertile eggs; 0% means that all the eggs are fertile.

[6] = tested on: Spodoptera frugiperda; experiment: Spodoptera frugiperda spray test; type: in vivo; settings: caterpillars on maize leaf discs, after 7 days
Text: (§2) Solvent: 78.0 parts by weight of acetone

[7] = tested on: Rhipicephalus sanguineus; experiment: Rhipicephalus sanguineus in vitro contact test with adult brown dog ticks; type: in vivo; settings: after 48 h, adult ticks dead or moribund
Description: For the coating of the test tubes, 9 mg of active compound are first dissolved in 1 ml of acetone p.a. and then diluted to the desired concentration with acetone p.a. 250 μl of the solution are distributed homogeneously on the inner walls and the base of a 25 ml test tube by turning and rocking on an orbital shaker (rocking rotation at 30 rpm for 2 h). With 900 ppm active compound solution and internal surface 44.7 cm^2, given homogeneous distribution, an area-based dose of 5 μg/cm^2 is achieved.
After the solvent has evaporated off, the tubes are populated with 5-10 adult dog ticks (Rhipicephalus sanguineus), sealed with a perforated plastic lid and incubated in a horizontal position in the dark at room temperature and ambient humidity. After 48 h, efficacy is determined. To this end, the ticks are knocked to the floor of the tube and incubated on a hotplate at 45-50° C. for not more than 5 min. Ticks which remain motionless on the floor or move in such an uncoordinated manner that they are unable to deliberately avoid the heat by climbing upwards are considered to be dead or moribund.
An efficacy of 100% means that all the ticks were dead or moribund. 0% efficacy means that none of the ticks had been harmed.

[8] = tested on: Tetranychus urticae; experiment: Tetranychus urticae spray test, OP-resistant (bean leaf discs); type: in vivo; settings: 500 g/ha, after 6 days
Description: as §2
After 6 days, the efficacy in % is determined.

[9] = tested on: Musca domestica; experiment: Musca domestica test; type: in vivo; settings: 100 ppm, adult houseflies, after 2 days
Text: as §1
Vessels containing a sponge treated with sugar solution and the active compound preparation of the desired concentration are populated with 10 adult houseflies (Musca domestica).

[10] = application rate 5 μg/cm^2 (500 g/ha)

SMILES	efficacy (kill in %) [1] [%]	logP [2]	efficacy ([3]; 500 g/ha) [%]	efficacy (kill in %) [4] [%]	efficacy (laying of fertile eggs) [5] [%]	efficacy ([6]; 500 g/ha) [%]	efficacy [7, 10] [%]	efficacy [8] [%]	efficacy ([3]; 100 g/ha) [%]	efficacy (kill in %) [9] [%]	efficacy ([6]; 100 g/ha) [%]	efficacy ([7]; application rate 1 μg/cm^2 (100 g/ha)) [%]
Cn1nc(C(F)(F)C(F)(F)F)c(C(F)(F)F)c1-c1cc(-c2ccc(Cl)c(C(=O)NC3CSC3)c2)no1 [Iap-4]	100	4.37	100	100	100	80	100	90				
CCn1nc(-c2ccc(Cl)c(C(=O)NC3CC3)c2)nc1-c1c(C(F)(F)F)c(C(F)(F)C(F)(F)F)nn1C [Ibg-5]		4.09	100					90				
Cn1nc(-c2c(C(F)(F)F)c(C(F)(F)C(F)(F)F)nn2C)nc1-c1ccc(Cl)c(C(=O)NCC(F)(F)F)c1 [Ibh-3]		3.99	100			100		90				
Cn1nc(C(F)(F)C(F)(F)F)c(C(F)(F)F)c1-c1cc(-c2ccc(Cl)c(C(=O)NCC(F)(F)F)c2)no1 [Iap-2]	100	4.42		100	100				100	100	100	80
Cn1nc(C(F)(F)C(F)(F)F)c(C(F)(F)F)c1-c1cc(-c2ccc(Cl)c(C(=O)NC3(C(F)(F)F)CC3)c2)no1 [Iap-5]	100	4.55		100	100				100	100		
Cn1nc(C(F)(F)C(F)(F)F)c(C(F)(F)F)c1-c1nc(-c2ccc(Cl)c(C(=O)NC3(C#N)CC3)c2)no1 [Ibf-2]	100	4.14	100	100	100	100	80			100		
Cn1nc(C(F)(F)C(F)(F)F)c(C(F)(F)F)c1-c1noc(-c2ccc(Cl)c(C(=O)NC3(C#N)CC3)c2)n1 [Ibe-4]	100	4.01	100	100	100	100		90		100		
CCn1nc(-c2c(C(F)(F)F)c(C(F)(F)C(F)(F)F)nn2C)nc1-c1ccc(Cl)c(C(=O)NC2CC2)c1 [Ibh-4]	90	3.99	100	100	100			100		90		
Cn1nc(C(F)(F)C(F)(F)F)c(C(F)(F)F)c1-c1nc(-c2ccc(Cl)c(C(=O)NC3CC3)c2)no1 [Ibf-3]	100	4.26	100	100	100	100				80		
Cn1nc(C(F)(F)C(F)(F)F)c(C(F)(F)F)c1-c1ccc(-c2ccc(Cl)c(C(=O)NC3(C#N)CC3)c2)o1 [Iaa-1]	100	4.08		100	100				100	100	100	
